From publication PMC5564600 (Oncotarget, 2017)

What was measured:
Assay in all cases: biochemical
Type in all cases: binding
panel of 442 kinases [1] = biological target: T1, panel of 442 kinases (Homo sapiens, UniProt P42681); conditions: kinase TXK; for remaining activity at 1 µM: read-out: TXK (% of control at 1 µM)
T1 construct: purchased Ambit Biosciences (scanMAXX KINOMEscan)
T1 sequence (P42681 1-527): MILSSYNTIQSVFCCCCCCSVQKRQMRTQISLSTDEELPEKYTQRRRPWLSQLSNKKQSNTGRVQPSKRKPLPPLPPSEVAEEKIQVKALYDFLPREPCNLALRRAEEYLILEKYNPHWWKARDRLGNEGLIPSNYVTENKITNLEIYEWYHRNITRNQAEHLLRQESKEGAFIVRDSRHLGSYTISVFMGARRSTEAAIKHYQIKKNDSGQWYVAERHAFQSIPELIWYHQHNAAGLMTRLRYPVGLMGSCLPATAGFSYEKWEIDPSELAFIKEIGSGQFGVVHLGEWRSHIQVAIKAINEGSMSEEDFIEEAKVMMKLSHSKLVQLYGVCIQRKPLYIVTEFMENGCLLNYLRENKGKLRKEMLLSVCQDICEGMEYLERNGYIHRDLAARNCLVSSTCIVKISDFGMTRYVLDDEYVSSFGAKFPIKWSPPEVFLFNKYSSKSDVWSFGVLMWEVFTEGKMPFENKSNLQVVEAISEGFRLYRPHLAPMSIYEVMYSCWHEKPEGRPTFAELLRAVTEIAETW

panel of 442 kinases [2] = biological target: T2, panel of 442 kinases (Homo sapiens, UniProt P36507); conditions: kinase MEK2; for remaining activity at 1 µM: read-out: % of control at 1 µM
T2 construct: purchased Ambit Biosciences (scanMAXX KINOMEscan)
T2 sequence (P36507 whole entry): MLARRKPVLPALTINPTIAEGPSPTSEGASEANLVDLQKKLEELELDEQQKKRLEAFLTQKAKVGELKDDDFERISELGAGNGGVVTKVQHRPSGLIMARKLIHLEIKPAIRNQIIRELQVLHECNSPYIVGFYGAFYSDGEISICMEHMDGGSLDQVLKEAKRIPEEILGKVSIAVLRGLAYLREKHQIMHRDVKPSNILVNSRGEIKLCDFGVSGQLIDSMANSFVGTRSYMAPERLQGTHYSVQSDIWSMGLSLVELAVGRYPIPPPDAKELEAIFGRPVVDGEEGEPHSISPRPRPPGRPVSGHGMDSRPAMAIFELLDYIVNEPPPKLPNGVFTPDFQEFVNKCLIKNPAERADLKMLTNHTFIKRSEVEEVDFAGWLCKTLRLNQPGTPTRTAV

panel of 442 kinases [3] = biological target: T3, panel of 442 kinases (Homo sapiens, UniProt Q8WTQ7); conditions: kinase GRK7; for remaining activity at 1 µM: read-out: % of control at 1 µM
T3 construct: purchased Ambit Biosciences (scanMAXX KINOMEscan)
T3 sequence (Q8WTQ7 1-553): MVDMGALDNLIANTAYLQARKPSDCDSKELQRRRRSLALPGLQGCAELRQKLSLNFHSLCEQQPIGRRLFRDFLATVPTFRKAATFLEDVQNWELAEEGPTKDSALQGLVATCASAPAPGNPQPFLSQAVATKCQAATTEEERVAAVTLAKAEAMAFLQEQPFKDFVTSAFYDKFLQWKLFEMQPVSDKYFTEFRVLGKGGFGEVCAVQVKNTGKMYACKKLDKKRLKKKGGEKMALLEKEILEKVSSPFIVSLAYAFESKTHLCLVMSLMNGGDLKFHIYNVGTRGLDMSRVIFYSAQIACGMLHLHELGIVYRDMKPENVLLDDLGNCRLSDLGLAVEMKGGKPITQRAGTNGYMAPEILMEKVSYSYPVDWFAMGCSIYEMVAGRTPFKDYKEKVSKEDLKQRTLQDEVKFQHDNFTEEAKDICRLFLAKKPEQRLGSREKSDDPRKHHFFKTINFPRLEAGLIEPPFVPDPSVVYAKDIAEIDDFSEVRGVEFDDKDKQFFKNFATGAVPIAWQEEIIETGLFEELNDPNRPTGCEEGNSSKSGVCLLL

panel of 442 kinases [4] = biological target: T4, panel of 442 kinases (Homo sapiens, UniProt Q9UQM7); conditions: CAMK2A; for remaining activity at 1 µM: read-out: % of control at 1 µM
T4 construct: purchased Ambit Biosciences (scanMAXX KINOMEscan)
T4 sequence (Q9UQM7 whole entry): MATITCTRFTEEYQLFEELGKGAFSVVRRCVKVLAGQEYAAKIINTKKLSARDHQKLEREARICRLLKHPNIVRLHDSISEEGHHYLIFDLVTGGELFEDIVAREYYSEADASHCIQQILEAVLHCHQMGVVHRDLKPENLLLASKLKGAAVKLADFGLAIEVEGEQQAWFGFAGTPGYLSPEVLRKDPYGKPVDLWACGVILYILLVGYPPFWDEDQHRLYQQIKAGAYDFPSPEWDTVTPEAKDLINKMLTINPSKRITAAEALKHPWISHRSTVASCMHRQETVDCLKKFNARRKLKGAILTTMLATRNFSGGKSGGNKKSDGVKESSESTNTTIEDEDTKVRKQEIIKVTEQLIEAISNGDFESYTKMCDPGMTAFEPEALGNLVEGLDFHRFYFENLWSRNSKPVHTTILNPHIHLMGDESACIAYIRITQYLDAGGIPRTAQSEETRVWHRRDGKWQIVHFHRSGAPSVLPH

panel of 442 kinases [5] = biological target: T5, panel of 442 kinases (Homo sapiens, UniProt Q13976); conditions: kinase PRKG1; for remaining activity at 1 µM: read-out: PRKG1 (% of control at 1 µM)
T5 construct: purchased Ambit Biosciences (scanMAXX KINOMEscan)
T5 sequence (Q13976 1-671): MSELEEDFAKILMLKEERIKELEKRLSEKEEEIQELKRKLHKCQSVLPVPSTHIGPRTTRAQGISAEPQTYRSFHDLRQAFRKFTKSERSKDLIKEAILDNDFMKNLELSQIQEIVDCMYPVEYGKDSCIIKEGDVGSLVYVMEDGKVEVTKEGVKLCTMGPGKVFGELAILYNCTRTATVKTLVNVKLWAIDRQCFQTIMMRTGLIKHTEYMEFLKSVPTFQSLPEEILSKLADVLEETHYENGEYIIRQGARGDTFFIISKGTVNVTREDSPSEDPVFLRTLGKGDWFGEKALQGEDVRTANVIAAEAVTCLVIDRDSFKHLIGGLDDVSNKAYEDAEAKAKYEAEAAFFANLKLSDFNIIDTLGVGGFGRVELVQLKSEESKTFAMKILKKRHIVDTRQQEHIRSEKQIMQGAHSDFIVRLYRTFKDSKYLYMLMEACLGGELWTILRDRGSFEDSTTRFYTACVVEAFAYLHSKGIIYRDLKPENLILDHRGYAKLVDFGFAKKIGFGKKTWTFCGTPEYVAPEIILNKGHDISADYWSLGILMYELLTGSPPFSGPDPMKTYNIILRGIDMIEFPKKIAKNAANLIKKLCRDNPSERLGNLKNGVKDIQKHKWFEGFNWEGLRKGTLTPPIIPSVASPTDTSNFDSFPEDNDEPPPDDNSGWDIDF

panel of 442 kinases [6] = biological target: T6, panel of 442 kinases (Homo sapiens, UniProt P20794); conditions: kinase MAK; for remaining activity at 1 µM: read-out: % of control at 1 µM
T6 construct: purchased Ambit Biosciences (scanMAXX KINOMEscan)
T6 sequence (P20794 1-623): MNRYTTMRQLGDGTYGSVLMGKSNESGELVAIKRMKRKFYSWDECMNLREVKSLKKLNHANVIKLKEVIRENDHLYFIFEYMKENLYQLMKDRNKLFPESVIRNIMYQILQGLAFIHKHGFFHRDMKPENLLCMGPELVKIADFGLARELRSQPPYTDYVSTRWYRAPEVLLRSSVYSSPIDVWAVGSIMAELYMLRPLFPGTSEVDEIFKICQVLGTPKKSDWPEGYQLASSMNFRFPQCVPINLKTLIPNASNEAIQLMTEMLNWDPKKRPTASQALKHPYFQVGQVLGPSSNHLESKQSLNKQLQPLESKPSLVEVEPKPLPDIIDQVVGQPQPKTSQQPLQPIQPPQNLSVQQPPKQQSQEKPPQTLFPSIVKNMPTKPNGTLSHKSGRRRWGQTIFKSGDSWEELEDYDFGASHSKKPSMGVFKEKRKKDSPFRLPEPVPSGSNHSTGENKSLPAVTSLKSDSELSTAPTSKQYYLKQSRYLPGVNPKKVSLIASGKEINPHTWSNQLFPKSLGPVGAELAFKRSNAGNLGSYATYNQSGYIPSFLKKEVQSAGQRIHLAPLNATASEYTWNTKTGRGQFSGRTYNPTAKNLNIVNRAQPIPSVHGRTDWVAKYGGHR

panel of 442 kinases [7] = biological target: T7, panel of 442 kinases (Homo sapiens, UniProt P06241); conditions: kinase FYN; for remaining activity at 1 µM: read-out: % of control at 1 µM
T7 construct: purchased Ambit Biosciences (scanMAXX KINOMEscan)
T7 sequence (P06241 whole entry): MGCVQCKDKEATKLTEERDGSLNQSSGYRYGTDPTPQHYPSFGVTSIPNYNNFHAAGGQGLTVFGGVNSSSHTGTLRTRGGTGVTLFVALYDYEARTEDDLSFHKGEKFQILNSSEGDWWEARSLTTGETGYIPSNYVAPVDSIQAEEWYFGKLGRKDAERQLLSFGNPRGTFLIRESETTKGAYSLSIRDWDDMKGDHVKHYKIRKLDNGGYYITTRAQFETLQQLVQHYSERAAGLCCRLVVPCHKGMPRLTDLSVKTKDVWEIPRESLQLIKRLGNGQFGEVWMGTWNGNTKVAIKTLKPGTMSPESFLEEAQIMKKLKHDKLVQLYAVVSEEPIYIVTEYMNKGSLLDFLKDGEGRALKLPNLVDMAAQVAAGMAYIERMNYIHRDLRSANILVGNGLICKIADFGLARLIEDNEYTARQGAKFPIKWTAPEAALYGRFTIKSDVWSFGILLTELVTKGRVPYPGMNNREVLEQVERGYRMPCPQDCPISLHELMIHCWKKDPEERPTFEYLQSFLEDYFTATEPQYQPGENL

[8] = 10 µM, read-out: % of control at 10 µM

For `Nc1cc(C(F)(F)F)c(-c2cc(N3CCOCC3)nc(N3CCOCC3)n2)cn1` [Buparlisib], which remaining activity at 1 µM (panel of 442 kinases [1]) is on record?
The remaining activity at 1 µM was 98%.

And the remaining activity at 10 µM (panel of 442 kinases [1]; 10 µM, read-out: TXK (% of control at 10 µM))?
The remaining activity at 10 µM was 89%.

And the remaining activity at 1 µM (panel of 442 kinases [2])?
The remaining activity at 1 µM was 100%.

And the remaining activity at 10 µM (panel of 442 kinases [2]; [8])?
Its remaining activity at 10 µM is 100%.

What about the remaining activity at 1 µM (panel of 442 kinases [3]) of the same compound?
The remaining activity at 1 µM was 77%.

And the remaining activity at 10 µM (panel of 442 kinases [3]; [8])?
Its remaining activity at 10 µM is 100%.

What about the remaining activity at 1 µM (panel of 442 kinases [4]) of the same compound?
Its remaining activity at 1 µM is 100%.

What about the remaining activity at 10 µM (panel of 442 kinases [4]; [8]) of the same compound?
The remaining activity at 10 µM was 100%.

What about the remaining activity at 1 µM (panel of 442 kinases [5]) of the same compound?
The remaining activity at 1 µM was 77%.

And the remaining activity at 10 µM (panel of 442 kinases [5]; 10 µM, read-out: PRKG1 (% of control at 10 µM))?
Its remaining activity at 10 µM is 100%.

What about the remaining activity at 1 µM (panel of 442 kinases [6]) of the same compound?
Its remaining activity at 1 µM is 98%.

What about the remaining activity at 10 µM (panel of 442 kinases [6]; [8]) of the same compound?
The remaining activity at 10 µM was 89%.

And the remaining activity at 1 µM (panel of 442 kinases [7])?
The remaining activity at 1 µM was 100%.

And the remaining activity at 10 µM (panel of 442 kinases [7]; [8])?
Its remaining activity at 10 µM is 100%.

What does the source list for `COc1ncc(-c2ccc3nccc(-c4ccnnc4)c3c2)cc1NS(=O)(=O)c1ccc(F)cc1F` [Omipalisib]?
remaining activity at 1 µM (panel of 442 kinases [1]): 82%; remaining activity at 1 µM (panel of 442 kinases [2]): 99%; remaining activity at 1 µM (panel of 442 kinases [3]): 100%; remaining activity at 1 µM (panel of 442 kinases [4]): 100%; remaining activity at 1 µM (panel of 442 kinases [5]): 100%; remaining activity at 1 µM (panel of 442 kinases [6]): 71%; remaining activity at 1 µM (panel of 442 kinases [7]): 100%

Which results are given for `FC(F)c1nc2ccccc2n1-c1nc(N2CCOCC2)nc(N2CCOCC2)n1` [ZSTK474, 2-(difluoromethyl)-1-[4,6-di(4-morpholinyl)-1,3,5-triazin-2-yl]-1H-benzimidazole]?
remaining activity at 1 µM (panel of 442 kinases [1]): 83%; remaining activity at 1 µM (panel of 442 kinases [2]): 97%; remaining activity at 1 µM (panel of 442 kinases [3]): 98%; remaining activity at 1 µM (panel of 442 kinases [4]): 87%; remaining activity at 1 µM (panel of 442 kinases [5]): 100%; remaining activity at 1 µM (panel of 442 kinases [6]): 87%; remaining activity at 1 µM (panel of 442 kinases [7]): 80%

Which results are given for `Cn1c(=O)n(-c2ccc(C(C)(C)C#N)cc2)c2c3cc(-c4cnc5ccccc5c4)ccc3ncc21` [Dactolisib, 2-methyl-2-[4-(3-methyl-2-oxo-8-quinolin-3-yl-2,3-dihydroimidazo[4,5-c]quinolin-1-yl)-phenyl] propionitrile]?
remaining activity at 1 µM (panel of 442 kinases [1]): 100%; remaining activity at 1 µM (panel of 442 kinases [2]): 73%; remaining activity at 1 µM (panel of 442 kinases [3]): 92%; remaining activity at 1 µM (panel of 442 kinases [4]): 90%; remaining activity at 1 µM (panel of 442 kinases [5]): 95%; remaining activity at 1 µM (panel of 442 kinases [6]): 64%; remaining activity at 1 µM (panel of 442 kinases [7]): 81%
